Reference: ChEMBL document CHEMBL5316308, “BET-HDAC Dual Inhibitors for Combinational Treatment of Breast Cancer and Concurrent Candidiasis” (J Med Chem, 2023)
Values after ≈ are worked out from the molar mass of the structure shown. Active and inactive are the calls of the source. The rule behind the calls is not given here.

Key:
[1] = system: MDA-MB-231; experiment: Induction of apoptosis in human MDA-MB-231 cells assessed as late apoptotic cells at 2.5 uM incubated for 48 hrs by Annexin V-FITC/PI staining based flow cytometry relative to control; format: functional
[2] = system: MDA-MB-231; experiment: Induction of apoptosis in human MDA-MB-231 cells assessed as late apoptotic cells at 5 uM incubated for 48 hrs by Annexin V-FITC/PI staining based flow cytometry relative to control; format: functional
[3] = system: MDA-MB-231; experiment: Induction of apoptosis in human MDA-MB-231 cells assessed as late apoptotic cells at 10 uM incubated for 48 hrs by Annexin V-FITC/PI staining based flow cytometry relative to control; format: functional
[4] = system: Candida albicans; experiment: Synergistic antifungal activity against Candida albicans 0304103 infected in ICR mouse assessed as decrease in kidney fungal load at 20 mg/kg, ip for 5 consecutive days; format: functional, organism-based; conditions: time 5.0 day
[5] = target: Histone deacetylase 1 (Homo sapiens, UniProt Q13547); experiment: Inhibition of full-length recombinant human HDAC1 (1 to 482 residues) expressed in baculovirus infected insect cells using Ac-Leu-Gly-Lys(Ac)-AMC as substrate incubated for 30 mins by fluorescence based assay; parameters: species or system Insect cell
Sequence of Histone deacetylase 1 (Q13547 whole entry, the tested form may be a part): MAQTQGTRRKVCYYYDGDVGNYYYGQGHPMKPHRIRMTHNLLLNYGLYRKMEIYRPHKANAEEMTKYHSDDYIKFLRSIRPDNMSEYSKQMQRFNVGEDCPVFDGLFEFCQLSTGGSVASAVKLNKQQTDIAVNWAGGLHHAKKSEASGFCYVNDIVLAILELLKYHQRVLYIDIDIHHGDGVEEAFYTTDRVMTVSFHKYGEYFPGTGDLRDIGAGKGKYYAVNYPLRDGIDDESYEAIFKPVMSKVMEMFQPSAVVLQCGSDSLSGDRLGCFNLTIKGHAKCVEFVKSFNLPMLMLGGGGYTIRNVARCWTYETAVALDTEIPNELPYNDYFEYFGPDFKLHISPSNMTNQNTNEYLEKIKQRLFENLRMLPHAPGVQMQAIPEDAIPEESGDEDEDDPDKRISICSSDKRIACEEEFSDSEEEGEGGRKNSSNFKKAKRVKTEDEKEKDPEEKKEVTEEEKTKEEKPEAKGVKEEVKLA

[6] = target: Bromodomain-containing protein 4 (Homo sapiens, UniProt O60885); experiment: Inhibition of recombinant BRD4 (unknown origin) incubated for 120 mins by TR-FRET assay relative to control; parameters: concentration or dose not given beside the values
[7] = system: K562; experiment: Antiproliferative activity against human K562 cells assessed as cell growth inhibition incubated for 24 hrs by CCK-8 assay; format: functional, cell-based; conditions: K562, 24 h
[8] = system: HEL; experiment: Antiproliferative activity against human HEL cells assessed as cell growth inhibition incubated for 24 hrs by CCK-8 assay; format: functional, cell-based
[9] = system: HL-60; experiment: Antiproliferative activity against human HL-60 cells assessed as cell growth inhibition incubated for 24 hrs by CCK-8 assay; format: functional, cell-based; conditions: HL-60, 24 h
[10] = system: MDA-MB-231; experiment: Antiproliferative activity against human MDA-MB-231 cells assessed as cell growth inhibition incubated for 24 hrs by CCK-8 assay; format: functional, cell-based; conditions: MDA-MB-231, 24 h
[11] = system: Cryptococcus neoformans; experiment: Antifungal activity against Cryptococcus neoformans H99 assessed as fungal growth inhibition measured after 48 hrs by CLSI based micro-dilution broth method; format: functional
[12] = system: Candida albicans; experiment: microbe, parasite or virus in culture; format: functional; conditions: 0304103, time 48 hrs
Description: Synergistic antifungal activity against azole-resistant Candida albicans 0304103 assessed as fungal growth inhibition measured after 48 hrs by CLSI based micro-dilution broth method

[13] = system: Candida albicans; experiment: microbe, parasite or virus in culture; format: functional; conditions: 0304103, time 48 hrs; remark: listed apart in the source
Description: Synergistic antifungal activity against azole-resistant Candida albicans 0304103 assessed as fungal growth inhibition measured after 48 hrs in presence of FLC by CLSI based micro-dilution broth method

[14] = system: Candida albicans; format: functional, 0304103; conditions: time 48 hrs
Description: Synergistic antifungal activity against azole-resistant Candida albicans 0304103 assessed as fractional inhibitory concentration index measured after 48 hrs in presence of FLC by CLSI based micro-dilution broth method

[15] = system: Candida albicans; experiment: Synergistic antifungal activity against azole-resistant Candida albicans 0304103 assessed as fungal growth inhibition measured after 48 hrs in presence of SAHA by CLSI based micro-dilution broth method; format: functional
[16] = system: K562; experiment: Antiproliferative activity against human K562 cells assessed as cell growth inhibition incubated for 24 hrs in presence of SAHA by CCK-8 assay; format: functional, cell-based; conditions: K562, 24 h
[17] = system: HEL; experiment: Antiproliferative activity against human HEL cells assessed as cell growth inhibition incubated for 24 hrs in presence of SAHA by CCK-8 assay; format: functional, cell-based
[18] = system: HL-60; experiment: Antiproliferative activity against human HL-60 cells assessed as cell growth inhibition incubated for 24 hrs in presence of SAHA by CCK-8 assay; format: functional, cell-based; conditions: HL-60, 24 h
[19] = system: MDA-MB-231; experiment: Antiproliferative activity against human MDA-MB-231 cells assessed as cell growth inhibition incubated for 24 hrs in presence of SAHA by CCK-8 assay; format: functional, cell-based; conditions: MDA-MB-231, 24 h
[20] = system: Cryptococcus neoformans; experiment: Antifungal activity against Cryptococcus neoformans H99 assessed as fungal growth inhibition measured after 48 hrs in presence of SAHA by CLSI based micro-dilution broth method; format: functional
[21] = system: Candida albicans; experiment: Synergistic antifungal activity against azole-resistant Candida albicans 0304103 assessed as fungal growth inhibition measured after 48 hrs in presence of FLC and SAHA by CLSI based micro-dilution broth method; format: functional
[22] = system: Candida albicans; experiment: Synergistic antifungal activity against azole-resistant Candida albicans 0304103 assessed as fractional inhibitory concentration index measured after 48 hrs in presence of FLC and SAHA by CLSI based micro-dilution broth method; format: functional
[23] = system: Candida albicans; experiment: Synergistic antifungal activity against azole-resistant Candida albicans 0304103 assessed as fungal growth inhibition at 32 ug/ml measured upto 24 hrs in presence of FLC by absorbance based assay; format: functional, organism-based; conditions: dose 32.0 µg/ml
[24] = system: MDA-MB-231; experiment: Antitumor activity against human MDA-MB-231 cells xenografted in Balb/c nude mouse assessed as tumor growth inhibition at 10 mg/kg, ip qd for 21 consecutive days relative to control; format: functional; conditions: MDA-MB-231, 480 h, time 20 day, read-out: TGI
[25] = system: Candida albicans; experiment: Antifungal activity against azole-resistant Candida albicans 0304103 assessed as fungal growth inhibition at 1 to 4 ug/ml measured upto 24 hrs by absorbance based assay; format: functional, organism-based; conditions: dose 1-4 µg/ml
[26] = system: Candida albicans; experiment: Antifungal activity FLC-resistant Candida albicans 0304103 assessed as hyphal formation at 32 ug/ml incubated for 3 hrs by inverse fluorescent microscopy; format: functional, organism-based; conditions: dose 32.0 µg/ml

Row | Structure (SMILES) | IC50 [5] [µM] | inhibition [6] [%] | IC50 [7] [µM] | IC50 [8] [µM] | IC50 [9] [µM] | IC50 [10] [µM] | MIC80 [11] [mg/L] | MIC80 [12] [mg/L] | MIC80 [13] [mg/L] | fractional inhibitory concentration index (FICI) [14] | further results
1 | O=C(CCCCCCC(=O)Nc1ccccc1)NO [VORINOSTAT] | – | – | – | – | – | – | – | – | – | – | Activity [1]: 16.91%; Activity [2]: 22.96%; Activity [3]: 27.19%; Activity [4]: inactive
2 | COc1cc2c(cc1-c1c(C)noc1C)[nH]c1ncnc(NCCCCC(=O)NO)c12 | > 2 | 11.1 | > 50 | > 50 | > 50 | > 50 | > 64 | > 64 | > 64 | >2 | –
3 | COc1cc2c(cc1-c1c(C)noc1C)[nH]c1nc(C)nc(NCCCCCCCC(=O)NO)c12 | 0.2 | 86.2 | 3 | 3.3 | > 50 | 7.8 | 64 (≈ 133 µM) | > 64 | 4 (≈ 8.32 µM) | 0.12 | –
4 | COc1cc2c(cc1-c1c(C)noc1C)[nH]c1nc(C)nc(Nc3cc(C4CC4)nn3C)c12 | – | – | 2.3 | 0.6 | 1.5 | 3.8 | 32 (≈ 72.2 µM) | > 64 | 16 (≈ 36.1 µM) | 1.2 | MIC80 [15]: > 64 mg/L; IC50 [16]: 0.00021 µM; IC50 [17]: 0.4 µM; IC50 [18]: 1.4 µM; IC50 [19]: 1.6 µM; MIC80 [20]: 64 mg/L; MIC80 [21]: 1 mg/L; fractional inhibitory concentration index (FICI) [22]: 0.26; Activity [1]: 8.25%; Activity [2]: 9.99%; Activity [3]: 16.93%; Activity [23]: inactive; inhibition in vivo at 10 mg/kg [24]: 22%; Activity [4]: inactive
5 | COc1cc2c(cc1-c1c(C)noc1C)[nH]c1nc(C)nc(Nc3ccc(/C=C/C(=O)NO)cc3)c12 | 1.2 | 55.2 | > 50 | > 50 | > 50 | 11 | 16 (≈ 33 µM) | > 64 | 0.5 (≈ 1.03 µM) | 0.13 | –
6 | COc1cc2c(cc1-c1c(C)noc1C)[nH]c1nc(C)nc(Nc3cccc(C(=O)NO)c3)c12 | > 2 | 14.8 | 3.8 | > 50 | > 50 | 9.8 | > 64 | > 64 | > 64 | >2 | –
7 | COc1cc2c(cc1-c1c(C)noc1C)[nH]c1ncnc(Nc3ccc(/C=C/C(=O)NO)cc3)c12 | > 2 | 67.5 | 11 | > 50 | > 50 | 6.3 | 16 (≈ 34 µM) | > 64 | 8 (≈ 17 µM) | 0.25 | –
8 | COc1cc2c(cc1-c1c(C)noc1C)[nH]c1ncnc(NCCCCCC(=O)Nc3ccc(/C=C/C(=O)NO)cc3)c12 | 0.252 | 56.1 | 8.1 | 8.9 | 3.8 | 14 | 2 (≈ 3.43 µM) | > 64 | 1 (≈ 1.71 µM) | 0.26 | –
9 | COc1cc2c(cc1-c1c(C)noc1C)[nH]c1nc(C)nc(NCCCCCC(=O)NO)c12 | 0.124 | 90.8 | 17 | 7.1 | 7.9 | > 50 | 32 (≈ 70.7 µM) | > 64 | 2 (≈ 4.42 µM) | 0.16 | –
10 | COc1cc2c(cc1-c1c(C)noc1C)[nH]c1nc(C)nc(NCc3ccc(C(=O)NO)cc3)c12 | 0.448 | 97.5 | 1.8 | 2.7 | 2.4 | 8.3 | 64 (≈ 135 µM) | > 64 | 2 (≈ 4.23 µM) | 0.062 | –
11 | OC(Cn1cncn1)(Cn1cncn1)c1ccc(F)cc1F | – | – | – | – | – | – | – | – | – | – | Activity [25]: inactive; Activity [26]: Active
12 | COc1cc2c(cc1-c1c(C)noc1C)[nH]c1ncnc(NCCCCCC(=O)NO)c12 | 0.203 | 64.7 | 17 | 13 | > 50 | > 50 | 32 (≈ 73 µM) | > 64 | 0.5 (≈ 1.14 µM) | 0.5 | –
13 | COc1cc2c(cc1-c1c(C)noc1C)[nH]c1ncnc(Nc3ccc(C(=O)NO)cc3)c12 | 0.974 | 53.4 | > 50 | > 50 | 6.7 | 19 | 64 (≈ 144 µM) | 64 (≈ 144 µM) | 8 (≈ 18 µM) | 0.25 | –
14 | COc1cc2c(cc1-c1c(C)noc1C)[nH]c1ncnc(NCCCCCCCC(=O)NO)c12 | 0.037 | 85.8 | 8.9 | 15 | > 50 | 3.8 | 2 (≈ 4.29 µM) | > 64 | 2 (≈ 4.29 µM) | 0.062 | –
15 | COc1cc2c(cc1-c1c(C)noc1C)[nH]c1nc(C)nc(NCCCCCC(=O)Nc3ccc(C(=O)NO)cc3)c12 | 0.086 | 79.7 | 18 | > 50 | 6.5 | 16 | 4 (≈ 7 µM) | > 64 | 1 (≈ 1.75 µM) | 0.047 | –
16 | COc1cc2c(cc1-c1c(C)noc1C)[nH]c1nc(C)nc(Nc3ccc(C(=O)NO)cc3)c12 | 0.395 | 79.8 | > 50 | > 50 | 2.3 | 9.3 | > 64 | > 64 | 0.5 (≈ 1.09 µM) | 0.07 | –
17 | COc1cc2c(cc1-c1c(C)noc1C)[nH]c1nc(C)nc(NCCCCCC(=O)Nc3ccc(/C=C/C(=O)NO)cc3)c12 | 1.1 | 58.3 | 6 | > 50 | 3.1 | 16 | 4 (≈ 6.69 µM) | > 64 | 1 (≈ 1.67 µM) | 0.078 | –
